The compounds below were run on promoter of Oct4 (assay: ChIP-qPCR of H3K4Me3 at the promoter of Oct4 in reprogramming-resistant fibroblasts). Conditions: HF4, in combination with OSKM overexpression.
Assay type: cell-based, human
Source text: The importance of active tri-methylation of histone H3 lysine 4 (H3K4Me3) in promoting transcription factors binding to an ‘open’ chromatin state and thereby initiation of reprogramming is known in the art. In good agreement, the inventors found the abundance of H3K4Me3 in O4I3-treated reprogramming-resistant fibroblasts by immunostaining (FIG. 14) and immunoblotting (FIG. 5B). To directly study if O4I3 facilitated the binding of H3K4Me3 to the promoter of Oct4, a CHIP-qPCR experiment was performed.
In reprogramming-resistant HF4, the level of H3K4Me3 at the promoter of OCT4 was increased by OSKM, but was still nearly 1,000-fold lower than that in PSCs (FIG. 19A). […] However, a clear influence on H3K4 methylation was not observed in the presence of KDM5B-, KDM5C-, or KDM5D-siRNA (FIG. 19A). […] Indeed, the reprogramming efficiency is negatively correlated with the expression of KDM5A in 11 HFs (FIG. 19D). Moreover, KDM5A siRNA increased the global level of H3K4Me3 in a dose-dependent manner (FIG. 19E). Of note, the alternation in the occupation of H3K27Me3 at the promoter of OCT4 was more refractory to chemical inhibition or genetic repression of KDM5s in the inventors' experiments (FIG. 19B). […]
In the case of Clc1ccc(N/N=C(\c2ccccc2)c2ccccn2)nc1 [JIB-04, reference compound], the “levels of H3K4Me3 at the promoter of OCT4” value is reported as “significantly elevated”.

The compounds below were run on Oct4 (assay: Luciferase reporter assay in NCCIT-Oct4 cells). Conditions: 100 nM, NCCIT-Oct4 cells.
Assay type: cell-based, human
Cc1ccc2nc(-c3ccc(C#N)cc3)cn2c1 [Compound 108, 4-(6-methylimidazo[1,2-a]pyridin-2-yl)benzonitrile] was tested, and the “Oct4 inducing activity as compared to the activity of O4I3 (101)” value was “significantly reduced the induction”. Cc1ccc2nc(-c3ccc(O)cc3)cn2c1 [Compound 107, 4-(6-methylimidazo[1,2-a]pyridin-2-yl)phenol] was tested, and the “Oct4 inducing activity as compared to the activity of O4I3 (101)” value was “significantly reduced the induction”. With Cc1ccc2nc(-c3ccc(Cl)cc3)cn2c1 [Compound 103, 2-(4-chlorophenyl)-6-methyl-imidazo[1,2-a]pyridine] the “Oct4 inducing activity as compared to the activity of O4I3 (101)” value was “increased the activity”. In the case of Cc1ccc2nc(-c3ccc(Br)cc3)cn2c1 [Compound 104, 2-(4-bromophenyl)-6-methyl-imidazo[1,2-a]pyridine], the “Oct4 inducing activity as compared to the activity of O4I3 (101)” value is reported as “increased the activity”. In the case of Cc1ccc2nc(-c3ccc([N+](=O)[O-])cc3)cn2c1 [Compound 105, 6-methyl-2-(4-nitrophenyl)imidazo[1,2-a]pyridine], the “Oct4 inducing activity as compared to the activity of O4I3 (101)” value is reported as “significantly reduced the induction”. Cc1ccc2nc(-c3ccccc3)cn2c1 [Compound 109, 6-methyl-2-phenyl-imidazo[1,2-a]pyridine] was tested, and the “Oct4 inducing activity as compared to the activity of O4I3 (101)” value was “not affected”. COc1ccc(-c2cn3cc(C)ccc3n2)cc1 [Compound 106, 2-(4-methoxyphenyl)-6-methyl-imidazo[1,2-a]pyridine] was tested, and the “Oct4 inducing activity as compared to the activity of O4I3 (101)” value was “significantly reduced the induction”. With Cc1ccc2nc(-c3ccc(F)cc3)cn2c1 [Compound 102, 2-(4-fluorophenyl)-6-methyl-imidazo[1,2-a]pyridine] the “Oct4 inducing activity as compared to the activity of O4I3 (101)” value was “increased the activity”.

These compounds were tested on Oct4 (assay: Luciferase reporter assay in NCCIT-Oct4 cells). Conditions: histone demethylase inhibitors, 48 h.
Assay type: cell-based, human
Experimental: The ability of the lead compound to induce Oct4 at translational level was tested in a luciferase reporter cell line in human embryonic carcinoma NCCIT cells driven by Oct4 response elements (NCCIT-Oct4). The compound lead to a nearly 10-fold induction of Oct4 at 10 nM compared to untreated cells (FIG. 1B). Consequently, the lead compound was named “Oct4 inducing compound 3” (O4I3).
Luciferase reporter assay was performed using Beatle Juice Kit (PJK, Germany) according to the manufacturer's instruction. NCCIT-Oct and NCCIT-Nanog reporter cells were plated into a 24-well plate (100,000 cells/well) for 24 h. Cells were treated with compounds as indicated and harvested with luciferase lysis buffer (25 mM Tris phosphate buffer pH=7.8, 4 mM EGTA, 1% Triton X-100, 10% glycerol and 2 mM fresh DTT, filtered through 0.45 μm sterile filter) at 37° C. for 15 min. The protein concentration was determined by Bradford assay (Sigma, Germany). 100 μL reaction mixture containing luciferin and ATP was added to 20 μL cell lysis in a white plate (Gibco, Germany), incubated for 5 min and measured by a luminometer plate-reader. The activity was determined as percent luminous intensity of treated cells over control cells from at least five-independent experiments.
With CCOC(=O)CCNc1cc(N2CCc3ccccc3CC2)nc(-c2ccccn2)n1 [GSK-J4] the “induction of OCT4 expression in NCCIT-OCT4 reporter cell line” value (“induction of OCT4 expression” for short) was “not”. In the case of CN(C)NC(=O)CCC(=O)O [daminozide], the “induction of OCT4 expression” value is reported as “not”. In the case of CC(C)c1c(-c2ccccc2)[nH]c2c(C#N)cnn2c1=O [CPI-455], the “induction of OCT4 expression” value is reported as 3 fold. Clc1ccc(N/N=C(\c2ccccc2)c2ccccn2)nc1 [JIB-04, reference compound] was tested, and the “induction of OCT4 expression” value was 5 fold.

The compounds below were run on human fibroblasts (assay: qRT-PCR of reprogramming associated genes in human fibroblasts). Conditions: JIB-04 treated fibroblasts.
Assay type: cell-based
Design: expression of OCT4, SOX2, and E-Cadherin in HFs: dose or concentration left out as unconfirmed
Experimental: Analyzing the effects of O4I3 on human fibroblasts, the activation of reprogramming associated genes, including an about 10-fold induction of Oct4, Nanog and Lin28, and an about 100-fold increase of Sox2 and E-Cadherin mRNA levels was detected. In particular, expression of several essential genes for reprogramming is equal to those in pluripotent stem cells, such as Esrrb, FGF2 and Sall4 (FIG. 12).
Quantitative reverse-transcription real-time-PCR was performed using a Light Cycler 96 (Roche, Germany) following the manufacturer's protocol. Briefly, total RNA was isolated from cells using TRIzol (Qiagen, Germany) or NucleoSpin®RNA Plus (Macherey-Nagel, Germany). The same amount of RNA was used to reverse-transcriptional synthesize cDNA by using random primers ProtoScript® First Strand cDNA Synthesis Kit (NEB, Germany). qPCR was performed using the SYBR Green PCR master mix (qPCRBIO SyGreen Mix Lo-Rox, Nippon Genetics, Germany) and the primer pairs indicated below (MWG, Eurofins, Germany). Actin was used as an endogenous control. Data were normalized to the value of untreated cells showing the mean±SD of quadruplicates and are representative of at least three independent experiments.
In the case of Clc1ccc(N/N=C(\c2ccccc2)c2ccccn2)nc1 [JIB-04, reference compound], the “expression of OCT4, SOX2, and E-Cadherin in HFs” value is reported as “induction”.

What follows are compounds tested on OCT4-promoter (assay: Luciferase reporter assay in HEK-OCT4 cells). Conditions: not given.
Assay type: cell-based
Experimental: In an effort to find such chemical structures able to induce pluripotency, a high-throughput screening (HTS) was performed. The screen was based on cellular luciferase reporter assays under the control of the promoter activity of a pluripotency-associated transcription factor (Oct4) in HEK293 cells.
The inventors adopted Hantzsch thiazole synthesis (FIG. 20A) and produced a series of new O4I2-ester derivatives (FIG. 20B). Their activities were measured in three luciferase report cell lines, namely HEK-OCT4, driven by the activation of OCT4-promoter, and NCCIT-OCT4 and NCCIT-NANOG, whose intensities are controlled by endogenous OCT4 and NANOG respectively. […] Carboxylesterase 1 (CES1) is an enzyme majorly contributing to ester-to-acid conversion.
O=C(O)c1csc(Nc2ccc(Cl)cc2)n1 [O4I2-COON, 2-(4-chlorophenylamino)thiazole-4-carboxylic acid] was tested, and the “activity in HEK-OCT4 cells” value was “inactive”.

— patent publication US20200062719A1, “Application of Imidazopyridine Derivatives in Regenerative Medicine” (University of Heidelberg, priority 2018, published 2020)
